Key:
Assay type in all cases: biochemical
cathepsin B = cathepsin B (Homo sapiens, UniProt P07858); assay: Inhibitory activity assay against cathepsin B (enzyme assay); conditions: Z-Arg-Arg-AMC 40 μM, enzyme 1 nM, pH 6.0, 90 minutes
Summary of the method: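 Reaction run 90 min in MES buffer pH 6.0 containing DTT, EDTA, Polysorbate 20 and 10% DMSO, using 40 μM fluorogenic Z-Arg-Arg-AMC and 1 nM cathepsin B. Ten compound levels from 10.0 μM; AMC fluorescence at ex 340/em 460 nm fitted to a 4-parameter logistic for IC50.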

cathepsin L = cathepsin L (Homo sapiens, UniProt P07711); assay: Inhibitory activity assay against cathepsin L (enzyme assay); conditions: Z-Phe-Arg-AMC 2 μM, enzyme 3 nM, pH 5.5, 30 minutes
Chain of cathepsin L (P07711 114-333, species assumed): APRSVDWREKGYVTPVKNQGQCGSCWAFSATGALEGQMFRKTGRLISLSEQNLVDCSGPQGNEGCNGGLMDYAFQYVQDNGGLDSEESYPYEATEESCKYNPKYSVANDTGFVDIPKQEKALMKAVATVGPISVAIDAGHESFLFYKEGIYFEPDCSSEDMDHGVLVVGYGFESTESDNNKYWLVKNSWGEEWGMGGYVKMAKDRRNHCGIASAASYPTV
Summary of the method: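 IC50s came from 4-parameter logistic fits of ten concentrations (10.0 μM down to 0.000508 μM). Reaction: 30 min, 3 nM enzyme, 2 μM Z-Phe-Arg-AMC, pH 5.5 MES buffer containing DTT, EDTA, Polysorbate 20 and 10% DMSO; fluorescence read 340/460 nm.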

cathepsin K = target: T1, cathepsin K (Homo sapiens, UniProt P43235); assay: Inhibitory activity assay against cathepsin K (enzyme assay); conditions: Z-Phe-Arg-AMC 10 μM, enzyme 1 nM, pH 5.5, 30 minutes
T1 sequence (P43235 115-329): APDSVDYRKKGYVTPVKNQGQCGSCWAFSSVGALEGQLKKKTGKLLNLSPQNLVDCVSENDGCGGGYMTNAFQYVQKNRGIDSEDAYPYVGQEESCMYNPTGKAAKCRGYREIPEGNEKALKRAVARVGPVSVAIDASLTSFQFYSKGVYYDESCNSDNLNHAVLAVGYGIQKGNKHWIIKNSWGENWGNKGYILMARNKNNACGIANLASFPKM
Summary of the method: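 IC50 by 4-parameter logistic fit of fluorescence (ex 355 nm, em 460 nm) after 30 min reaction. Compound tested at 10 final concentrations from 10.0 μM down to 0.000508 μM against 1 nM enzyme and 10 μM Z-Phe-Arg-AMC, in MES buffer pH 5.5 with DTT, EDTA, Triton X-100 and 10% DMSO.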

cathepsin S = cathepsin S (Homo sapiens, UniProt P25774); assay: Inhibitory activity assay against cathepsin S (enzyme assay); conditions: Z-Phe-Arg-AMC 70 μM, enzyme 3 nM, pH 6.5, 45 minutes
Chain of cathepsin S (P25774 115-331, species assumed): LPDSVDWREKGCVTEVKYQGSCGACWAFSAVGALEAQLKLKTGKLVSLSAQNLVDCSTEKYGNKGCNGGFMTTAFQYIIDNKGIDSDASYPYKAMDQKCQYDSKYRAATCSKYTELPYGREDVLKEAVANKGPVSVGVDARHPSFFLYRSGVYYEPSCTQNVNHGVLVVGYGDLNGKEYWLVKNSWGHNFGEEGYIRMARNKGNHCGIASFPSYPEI
Summary of the method: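 Ten-point compound titration (10.0 to 0.000508 μM final) reacted 45 min with 3 nM cathepsin S and 70 μM Z-Phe-Arg-AMC in MES 50 mM pH 6.5, DTT 2.5 mM, EDTA 1.0 mM, BSA 0.001%, DMSO 10%. AMC release read at 340/460 nm; IC50 from four-parameter logistic fit.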

SMILES	IC50 (cathepsin B)	IC50 (cathepsin L)	IC50 (cathepsin K)	IC50 (cathepsin S)
N#Cc1nccc(C2(NC(=O)Nc3cc(F)ccc3F)CCCC2)n1 [Example 65, 1-(1-(2-cyanopyrimidin-4-yl)cyclopentyl)-3-(2,5-difluorophenyl)urea]	> 10000 nM	> 10000 nM	46.6 nM	> 10000 nM
CN(C)C1CCN(c2ccc(NC(=O)NC3(c4ccnc(C#N)n4)CCCCC3)cc2)CC1 [Example 141, 1-(1-(2-cyanopyrimidin-4-yl)cyclohexyl)-3-(4-(4-(dimethylamino)piperidin-1-yl)phenyl)urea]	> 10000 nM	> 10000 nM	4.5 nM	> 10000 nM
CC(=O)NCc1ccc(-c2ccc(NC(=O)NC3(c4ccnc(C#N)n4)CCCCC3)cc2)cc1 [Example 151, N-((4′-(3-(1-(2-cyanopyrimidin-4-yl)cyclohexyl)ureido)-[1,1′-biphenyl]-4-yl)methyl)acetamide]	> 10000 nM	> 10000 nM	2 nM	> 10000 nM
N#Cc1nccc(C2(NC(=O)Nc3ccc(-c4ccc(N5CCOCC5)cc4)cc3)CCCCC2)n1 [Example 117, 1-(1-(2-cyanopyrimidin-4-yl)cyclohexyl)-3-(4′-morpholino-[1,1′-biphenyl]-4-yl)urea]	> 10000 nM	> 10000 nM	4.1 nM	> 10000 nM
CC(C)N1CCN(c2ccc(-c3ccc(NC(=O)NC4(c5ccnc(C#N)n5)CCCCC4)cc3)cc2)CC1 [Example 154, 1-(1-(2-cyanopyrimidin-4-yl)cyclohexyl)-3-(4′-(4-isopropylpiperazin-1-yl)-[1,1′-biphenyl]-4-yl)urea]	3210 nM	4280 nM	0.3 nM	> 10000 nM
N#Cc1nccc(C2(NC(=O)Nc3ccc(Cc4ccccc4)cc3)CCCCC2)n1 [Example 100, 1-(4-benzylphenyl)-3-(1-(2-cyanopyrimidin-4-yl)cyclohexyl)urea]	> 10000 nM	> 10000 nM	15.4 nM	> 10000 nM
N#Cc1nccc(C2(NC(=O)Nc3ccc(Br)cc3)CCCCC2)n1 [Example 110, 1-(4-bromophenyl)-3-(1-(2-cyanopyrimidin-4-yl)cyclohexyl)urea]	> 10000 nM	> 10000 nM	22.9 nM	> 10000 nM
N#Cc1nccc(C2(NC(=O)OCc3ccc(Cl)cc3)CCCCC2)n1 [Example 23, 4-chlorobenzyl (1-(2-cyanopyrimidin-4-yl)cyclohexyl)carbamate]	> 10000 nM	> 10000 nM	19.9 nM	> 10000 nM
N#Cc1nccc(C2(NC(=O)OCc3ccccc3C(F)(F)F)CCCCC2)n1 [Example 20, 2-(trifluoromethyl)benzyl (1-(2-cyanopyrimidin-4-yl)cyclohexyl)carbamate]	> 10000 nM	2010 nM	32.9 nM	9230 nM
Cc1ccc(C)c(NC(=O)NC2(c3ccnc(C#N)n3)CCCC2)c1 [Example 50, 1-(1-(2-cyanopyrimidin-4-yl)cyclopentyl)-3-(2,5-dimethylphenyl)urea]	> 10000 nM	2670 nM	4.3 nM	> 10000 nM

Source: US11299478B2, “2-cyanopyrimidin-4-yl carbamate or urea derivative or salt thereof, and pharmaceutical composition including same” (HANLIM PHARMACEUTICAL CO., LTD., priority 2018, dated 2022)
